Assay results: patent US20230150970A1, “AMINOPYRIMIDINE DERIVATIVES AND THEIR USE AS ARYL HYDROCARBON RECEPTOR MODULATORS” (DONG-A ST CO., LTD., priority 2020, published 2023)
pEC50, pIC50: −log10 of the molar value. Where two headings read alike, the source gives them in different places.

Tests used:
[1] = molecular target: T1, AhR (Homo sapiens, UniProt P35869)
T1 sequence (P35869 11-848): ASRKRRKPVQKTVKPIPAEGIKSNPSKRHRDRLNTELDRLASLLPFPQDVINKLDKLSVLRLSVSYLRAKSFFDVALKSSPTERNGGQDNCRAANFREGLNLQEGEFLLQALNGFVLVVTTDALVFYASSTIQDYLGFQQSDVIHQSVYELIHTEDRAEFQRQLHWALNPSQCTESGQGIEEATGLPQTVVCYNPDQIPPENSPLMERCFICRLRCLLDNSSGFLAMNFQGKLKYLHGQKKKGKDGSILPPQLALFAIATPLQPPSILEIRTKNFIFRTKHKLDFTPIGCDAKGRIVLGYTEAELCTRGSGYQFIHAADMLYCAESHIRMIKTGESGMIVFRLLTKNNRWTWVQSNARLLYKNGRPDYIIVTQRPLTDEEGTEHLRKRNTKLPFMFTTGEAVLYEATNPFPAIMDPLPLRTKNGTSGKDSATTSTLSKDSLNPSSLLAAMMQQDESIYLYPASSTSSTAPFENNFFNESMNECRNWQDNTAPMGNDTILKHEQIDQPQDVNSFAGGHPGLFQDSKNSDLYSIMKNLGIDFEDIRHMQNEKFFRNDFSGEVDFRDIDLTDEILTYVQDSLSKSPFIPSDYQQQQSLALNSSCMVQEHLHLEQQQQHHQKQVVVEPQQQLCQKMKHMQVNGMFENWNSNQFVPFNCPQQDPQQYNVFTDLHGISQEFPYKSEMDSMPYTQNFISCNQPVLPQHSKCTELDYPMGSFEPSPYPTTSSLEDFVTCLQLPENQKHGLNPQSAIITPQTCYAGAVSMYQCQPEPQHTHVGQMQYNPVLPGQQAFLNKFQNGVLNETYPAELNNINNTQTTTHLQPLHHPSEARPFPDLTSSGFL

[2] = molecular target: T2, AhR (Mus musculus, UniProt P30561); assay: In Vitro Assay 2: XRE-luciferase reporter assay, antagonism in mouse cell line (Hepa1c1c7); assay type: cell-based; details: 6 hours, read-out: Assay 2: AhR-Luc Mouse Antagonism (IC50)
T2 sequence (P30561 1-848): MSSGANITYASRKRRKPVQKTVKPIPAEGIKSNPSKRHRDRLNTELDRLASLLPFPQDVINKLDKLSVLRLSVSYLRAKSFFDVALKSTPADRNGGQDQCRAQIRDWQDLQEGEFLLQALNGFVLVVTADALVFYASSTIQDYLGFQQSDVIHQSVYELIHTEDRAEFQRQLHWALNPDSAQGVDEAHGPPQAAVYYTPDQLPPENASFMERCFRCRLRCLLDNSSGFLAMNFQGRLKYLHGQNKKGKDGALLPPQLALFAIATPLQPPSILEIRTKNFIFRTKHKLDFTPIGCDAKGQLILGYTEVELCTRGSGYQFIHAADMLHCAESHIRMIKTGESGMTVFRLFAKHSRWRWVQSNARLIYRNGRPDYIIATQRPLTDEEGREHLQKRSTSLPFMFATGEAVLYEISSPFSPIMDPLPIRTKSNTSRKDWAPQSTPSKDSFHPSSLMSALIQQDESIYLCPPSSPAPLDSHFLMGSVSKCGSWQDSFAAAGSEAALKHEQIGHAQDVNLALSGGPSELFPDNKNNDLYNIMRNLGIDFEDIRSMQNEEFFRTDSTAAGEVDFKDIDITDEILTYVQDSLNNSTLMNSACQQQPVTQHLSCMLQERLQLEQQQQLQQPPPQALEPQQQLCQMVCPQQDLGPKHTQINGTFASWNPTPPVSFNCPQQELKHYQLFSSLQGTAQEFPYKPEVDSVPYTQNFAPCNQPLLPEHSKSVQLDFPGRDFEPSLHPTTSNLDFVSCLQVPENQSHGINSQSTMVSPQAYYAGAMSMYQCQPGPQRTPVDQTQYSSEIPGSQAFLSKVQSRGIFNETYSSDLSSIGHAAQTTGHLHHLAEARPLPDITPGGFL
Experimental: In Vitro Assay 2: Antagonism in Mouse Cell Line
Hepa1c1c7 (murine liver cancer cell line) cells co-transfected with XRE-Luc and Nano-Luc plasmids were plated in complete medium and incubated overnight at 37° C. in a CO2 incubator. Following incubation, cells were treated with AhR activating ligands such as kynurenic acid, kynurenine (#) with or without test compounds for 6 hours.

[3] = molecular target: T1, AhR; assay: In Vitro Assay 3: XRE-luciferase reporter assay, agonism in human cell line (HepG2); assay type: cell-based; design: endogenous in cells; host or cells: HepG2; details: HepG2, tryptophan free medium, 6 hours, no agonist, read-out: Assay 3: AhR-Luc Human Agonism (EC50)
Experimental: In Vitro Assay 3: Agonism in Human Cell Line
HepG2 (human hepatoma cell line) cells co-transfected with XRE-Luc and Nano-Luc plasmids were plated in tryptophan free medium containing 1% of dialyzed fetal bovine serum and incubated overnight at 37° C. in a CO2 incubator. After 24 hours, cells were treated for 6 hours with test compounds or not. […] As a positive control, cells were incubated with TCDD.

[4] = molecular target: T1, AhR; assay: In Vitro Assay 1: XRE-luciferase reporter assay, antagonism in human cell line (HepG2); details: Assay 1: AhR-Luc Human Antagonism (IC50, nM), 6 hours
[5] = molecular target: T1, AhR; assay: In Vitro Assay 4: endogenous AhR activity assay (CYP1A1 and CYP1B1 mRNA, qRT-PCR, HepG2 cells)
[6] = values marked #: AhR activating ligand kynurenine
[7] = HepG2, read-out: CYP1A1 (% Inhibition)
[8] = HepG2, read-out: CYP1B1 (% Inhibition)
[9] = unmarked values: kynurenine 200 μM

| pIC50 [1] | Molecule | pIC50 [2, 6] | pEC50 ([3]; number of the cell) | IC50 ([4]; values marked *: kynurenine 50 μM) | inhibition at 0.123 µM [5, 7] | inhibition at 0.123 µM [5, 8] | pIC50 ([2]; unmarked values: AhR activating ligand kynurenic acid) | pEC50 ([3]; class in brackets of the cell) | IC50 [4, 9] |
| --- | --- | --- | --- | --- | --- | --- | --- | --- | --- |
| 7.00 to 8.00 | 4-(4-chlorophenyl)-2-(pyridin-3-yl)-6-(4-(pyrimidin-2-yl)piperazin-1-yl)pyrimidine [Example 90] |  |  |  |  |  |  |  |  |
|  | O[C@@H]1CN(c2cc(-c3ccc(Cl)cc3)nc(-c3cccnc3)n2)C[C@@H]1F [Example 235, (3R,4S)-1-(6-(4-chlorophenyl)-2-(pyridin-3-yl)pyrimidin-4-yl)-4-fluoropyrrolidin-3-ol] | 7.00 to 8.00 | 5.45 | < 10 nM | 106% | 101% |  |  |  |
|  | O=S(=O)(CCO)N1CCN(c2cc(-c3ccc(Cl)cc3)nc(-c3cccnc3)n2)CC1 [Example 239, 2-((4-(6-(4-chlorophenyl)-2-(pyridin-3-yl)pyrimidin-4-yl)piperazin-1-yl)sulfonyl)ethan-1-ol] |  | < 4.52 |  | 108% | 101% | > 8.00 | < 5.00 | < 10 nM |
|  | OCC1CCN(c2cc(-c3ccc(N4CCOCC4)cc3)nc(-c3cccnc3)n2)CC1 [Example 268, (1-(6-(4-morpholinophenyl)-2-(pyridin-3-yl)pyrimidin-4-yl)piperidin-4-yl)methanol] | > 8.00 | < 4.52 |  | 102% |  |  | < 5.00 | < 10 nM |
|  | O[C@H]1CCN(c2cc(-c3ccc(Cl)cc3)nc(-c3cncc(F)c3)n2)C1 [Example 323, (S)-1-(6-(4-chlorophenyl)-2-(5-fluoropyridin-3-yl)pyrimidin-4-yl)pyrrolidin-3-ol] | 7.00 to 8.00 | < 4.52 |  | 108% | 99.8% |  | < 5.00 | < 10 nM |
|  | O[C@H]1CCN(c2cc(-c3ccc(C(F)(F)F)cc3)nc(-c3cncc(F)c3)n2)C1 [Example 327, (S)-1-(2-(5-fluoropyridin-3-yl)-6-(4-(trifluoromethyl)phenyl)pyrimidin-4-yl)pyrrolidin-3-ol] | 7.00 to 8.00 | 5.76 |  | 106% | 101% |  |  | < 10 nM |
|  | O=C(CCO)N1CCN(c2cc(-c3ccc(Cl)cc3)nc(-c3cccnc3)n2)CC1 [Example 352, 1-(4-(6-(4-chlorophenyl)-2-(pyridin-3-yl)pyrimidin-4-yl)piperazin-1-yl)-3-hydroxypropan-1-one] | 7.00 to 8.00 | < 4.52 |  | 87.2% |  |  | < 5.00 | < 10 nM |
